Experimental findings from patent US20160185797A1, “ALKYNYL ALCOHOLS AND METHODS OF USE” (Genentech, Inc., priority 2013, published 2016) are described below.

Structures are written as SMILES.

For assay [1], the target named is T1, nuclear factor-kappa B (NF-kB)-inducing kinase (NIK) (Homo sapiens, UniProt Q99558).
T1 construct: made in house; host or cells: baculovirus-infected insect cells
Description: NIK enzyme inhibition assay (Transcreener ADP fluorescence polarization, NIK ADP-FP). The format is biochemical. On the technique in general: Polarisation of emitted light reports the rotation of a fluorescent probe.

The subject of assay [2] is REL-A (p65) nuclear translocation in HeLa cells. In words: REL-A (p65) nuclear translocation assay in HeLa cells, TNF-α stimulated (classical NF-kB signaling), high content imaging. Type of assay: cell-based. Conditions: Homo sapiens, HeLa, compound 4.5 h, then 10 ng/mL TNF-α for 30 minutes, read-out: REL-A HeLa Transloc Assay (IC50). The procedure:
(§1) Several assays were developed to profile the cellular activities of NIK inhibitors.
(§2) (2) A second set of cell assay are used to define the selectivity of NIK inhibitors toward inhibition of classical vs. non-classical NF-kB signaling and rely on quantification of the nuclear translocation of p52 (NF-kB2) and REL-A (p65) using high content cellular imaging. For the p52 (non-classical NF-kB signaling) nuclear translocation assay, HeLa cells are treated with different concentrations of compounds (0.2% DMSO final) in medium containing 10% fetal bovine serum and then stimulated with 100 ng/mL of an anti-lymphotoxin beta receptor antibody (R&D Systems) for 5 hours. In the REL-A nuclear translocation assay, HeLa cells are incubated with compounds (0.2% DMSO final) for 4.5 hours in medium containing 10% fetal bovine serum before stimulating them with 10 ng/mL tumor necrosis factor (TNF)-α (R&D Systems) for 30 minutes. Cells are fixed with 4% paraformaldehyde, permeabilized by adding 0.1% Triton X-100 in phosphate buffered saline, and then are incubated with either 2 ug/mL anti-p52 antibody (Millipore) or 400 ng/mL anti-REL-A (p65) antibody (Santa Cruz Biotechnology). Finally, the cells are incubated with an Alexa488-labeled secondary antibody (Invitrogen) and DRAQ5 DNA stain (Biostatus). Imaging is carried out using an Opera reader (Perkin Elmer) and data are analyzed with the aid of Acapella software (Perkin Elmer). The p52 or REL-Atranslocation into the nucleus is quantified by the ratio of the nuclear to cytoplasmic signal intensity. […] The compounds in listed in Table 1 have the corresponding inhibitory value (IC50 in micromolar) for NIK p52 Translocation Assay as set forth in Table 2.
(§3) The compounds in listed in Table 1 have the corresponding inhibitory values (IC50 in micromolar) for the Translocation Assays as set forth in Table 2.

In assay [3] the test system is p52 (NF-kB2) nuclear translocation in HeLa cells. In words: p52 (NF-kB2) nuclear translocation assay in HeLa cells, anti-lymphotoxin beta receptor antibody stimulated (non-classical NF-kB signaling), high content imaging. Type of assay: cell-based. Conditions: Homo sapiens, 100 ng/mL anti-lymphotoxin beta receptor antibody for 5 hours, read-out: p52 HeLa Transloc Assay (IC50). The procedure: as §1, §2, §3

T1 sequence (Q99558 whole entry): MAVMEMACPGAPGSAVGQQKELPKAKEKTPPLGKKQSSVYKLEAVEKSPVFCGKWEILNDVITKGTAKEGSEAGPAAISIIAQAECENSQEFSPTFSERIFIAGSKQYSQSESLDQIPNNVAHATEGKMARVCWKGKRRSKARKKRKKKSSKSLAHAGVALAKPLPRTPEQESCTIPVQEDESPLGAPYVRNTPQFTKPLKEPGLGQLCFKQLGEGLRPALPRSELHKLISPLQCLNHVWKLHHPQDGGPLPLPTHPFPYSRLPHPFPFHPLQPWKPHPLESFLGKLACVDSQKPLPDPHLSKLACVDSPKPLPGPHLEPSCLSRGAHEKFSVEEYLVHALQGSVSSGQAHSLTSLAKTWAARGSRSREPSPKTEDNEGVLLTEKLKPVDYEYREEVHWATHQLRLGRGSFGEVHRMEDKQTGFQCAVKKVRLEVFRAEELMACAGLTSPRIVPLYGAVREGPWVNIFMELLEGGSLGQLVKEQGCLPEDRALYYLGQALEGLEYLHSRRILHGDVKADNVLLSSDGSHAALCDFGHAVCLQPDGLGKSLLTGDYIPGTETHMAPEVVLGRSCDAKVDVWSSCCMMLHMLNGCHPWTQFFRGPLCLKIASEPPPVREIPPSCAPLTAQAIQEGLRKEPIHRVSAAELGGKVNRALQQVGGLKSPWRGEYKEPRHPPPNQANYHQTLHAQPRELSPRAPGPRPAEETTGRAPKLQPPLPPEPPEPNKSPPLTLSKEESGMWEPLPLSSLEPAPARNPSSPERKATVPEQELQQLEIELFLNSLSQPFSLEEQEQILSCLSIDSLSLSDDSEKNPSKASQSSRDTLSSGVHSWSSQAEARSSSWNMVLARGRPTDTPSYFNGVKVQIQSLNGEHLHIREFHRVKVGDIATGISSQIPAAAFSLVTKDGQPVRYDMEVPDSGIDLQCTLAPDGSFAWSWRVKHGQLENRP

Regarding `CN1CC[C@@](O)(C#Cc2cccc(-c3nc(N)cc(C(N)=O)n3)c2)C1=O` [Example 14, 6-amino-2-[3-[2-[(3R)-3-hydroxy-1-methyl-2-oxo-pyrrolidin-3-yl]ethynyl]phenyl]pyrimidine-4-carboxamide], in assay [1], the Ki – broadly, a measure of affinity in units of concentration, obtained from inhibition or displacement – worked out at 0.38 nM. Further, the values for the IC50 in assay [2] and in assay [3] were over 20000 nM and 665 nM, respectively.
In turn, `CN1CC[C@@](O)(C#Cc2cccc(-c3nc(C(N)=O)ccc3F)c2)C1=O` [Example 15, 5-fluoro-6-[3-[2-[(3R)-3-hydroxy-1-methyl-2-oxo-pyrrolidin-3-yl]ethynyl]phenyl] pyridine-2-carboxamide] had a Ki in assay [1] of 1.21 nM. Moreover, the IC50 (as a rule, the point on the concentration scale where inhibition reaches its midpoint) in assay [2] was over 20000 nM; in assay [3], 630 nM.
For `CC(C)c1cc(C(N)=O)nc(-c2cccc(C#C[C@]3(O)CCN(C)C3=O)c2)n1` [Example 16, 2-[3-[2-[(3R)-3-hydroxy-1-methyl-2-oxo-pyrrolidin-3-yl]ethynyl]phenyl]-6-isopropyl-pyrimidine-4-carboxamide] the same measures were 0.54 nM, over 20000 nM and 191 nM.
In turn, `CN1CC[C@@](O)(C#Cc2cccc(-c3nc(C(N)=O)cc(C(F)(F)F)n3)c2)C1=O` [Example 17, 2-[3-[2-[(3R)-3-hydroxy-1-methyl-2-oxo-pyrrolidin-3-yl]ethynyl]phenyl]-6-(trifluoromethyl)pyrimidine-4-carboxamide] registered a Ki in assay [1] of 0.84 nM. In addition, the IC50 is over 20000 nM in assay [2] and 225 nM in assay [3].
Regarding `COCC1CCCN1c1cc(C(N)=O)nc(-c2cccc(C#C[C@]3(O)CCN(C)C3=O)c2)n1` (stereo partly drawn) [Example 18, 2-[3-[2-[(3R)-3-hydroxy-1-methyl-2-oxo-pyrrolidin-3-yl]ethynyl]phenyl]-6-[2-(methoxymethyl)pyrrolidin-1-yl]pyrimidine-4-carboxamide], affinity in assay [1] was put at a Ki of 2.19 nM. Besides, the IC50 is over 20000 nM in assay [2] and 39 nM in assay [3].
In the case of `CON(C)c1cc(C(N)=O)nc(-c2cccc(C#C[C@]3(O)CCN(C)C3=O)c2)n1` [Example 19, 2-[3-[2-[(3R)-3-hydroxy-1-methyl-2-oxo-pyrrolidin-3-yl]ethynyl]phenyl]-6-[methoxy (methyl)amino]pyrimidine-4-carboxamide], in assay [1], the Ki amounted to 1.1 nM. Further, the 50% inhibitory concentration (IC50) in assay [2] is over 20000 nM; in assay [3] it was 45.5 nM.
`CN1CC[C@@](O)(C#Cc2cccc(-c3nc(C(N)=O)cc(N4CCc5ccccc54)n3)c2)C1=O` [Example 20, 2-[3-[2-[(3R)-3-hydroxy-1-methyl-2-oxo-pyrrolidin-3-yl]ethynyl]phenyl]-6-indolin-1-yl-pyrimidine-4-carboxamide] registered a Ki in assay [1] of 0.79 nM. The IC50 stood at 19100 nM in assay [2] and 374 nM in assay [3].
For `CN1CC[C@@](O)(C#Cc2cccc(-c3nc(C(N)=O)cc(N4CCCC45COC5)n3)c2)C1=O` [Example 21, 2-[3-[2-[(3R)-3-hydroxy-1-methyl-2-oxo-pyrrolidin-3-yl]ethynyl]phenyl]-6-(2-oxa-8-azaspiro[3.4]octan-8-yl) pyrimidine-4-carboxamide] the same measures were 1.2 nM, over 20000 nM and 84.2 nM.
The corresponding values for `C[C@@H]1CCN1c1cc(C(N)=O)nc(-c2cccc(C#C[C@]3(O)CCN(C)C3=O)c2)n1` [Example 22, 2-[3-[2-[(3R)-3-hydroxy-1-methyl-2-oxo-pyrrolidin-3-yl]ethynyl]phenyl]-6-[(2R)-2-methylazetidin-1-yl]pyrimidine-4-carboxamide] are 1.14 nM, over 20000 nM and 85 nM.
In turn, `C[C@H]1CCN1c1cc(C(N)=O)nc(-c2cccc(C#C[C@]3(O)CCN(C)C3=O)c2)n1` [Example 23, 2-[3-[2-[(3R)-3-hydroxy-1-methyl-2-oxo-pyrrolidin-3-yl]ethynyl]phenyl]-6-[(2S)-2-methylazetidin-1-yl] pyrimidine-4-carboxamide] had a Ki in assay [1] of 1.48 nM. Moreover, the results for the IC50 in assay [2] and in assay [3] were over 20000 nM and 96.1 nM, respectively.
In assay [1], `CN1CC[C@@](O)(C#Cc2cccc(-c3nc(C(N)=O)cc(N4CC[C@@H]4c4cccs4)n3)c2)C1=O` [Example 26, 2-[3-[2-[(3R)-3-hydroxy-1-methyl-2-oxo-pyrrolidin-3-yl]ethynyl]phenyl]-6-[(2R)-2-(2-thienyl)azetidin-1-yl] pyrimidine-4-carboxamide] returned a Ki of 4.85 nM. For the same compound, the figures for the IC50 in assay [2] and in assay [3] were over 20000 nM and 110 nM, respectively.
The corresponding values for `CN1CC[C@@](O)(C#Cc2cccc(-c3nc(C(N)=O)cc(N4CC[C@H]4c4cccs4)n3)c2)C1=O` [Example 27, 2-[3-[2-[(3R)-3-hydroxy-1-methyl-2-oxo-pyrrolidin-3-yl]ethynyl]phenyl]-6-[(2S)-2-(2-thienyl)azetidin-1-yl]pyrimidine-4-carboxamide] are 3.34 nM, over 20000 nM and 87.2 nM.
Compound `CC(C)C[C@@H]1CCCN1c1cc(C(N)=O)nc(-c2cccc(C#C[C@]3(O)CCN(C)C3=O)c2)n1` [Example 28, 2-[3-[2-[(3R)-3-hydroxy-1-methyl-2-oxo-pyrrolidin-3-yl]ethynyl]phenyl]-6-[(2S)-2-isobutylpyrrolidin-1-yl] pyrimidine-4-carboxamide] had a Ki in assay [1] of 2.38 nM. In addition, the IC50 in assay [2] is over 20000 nM; in assay [3], 229 nM.
With `CN1CC[C@@](O)(C#Cc2cccc(-c3nc(N[C@@H]4CCOC4)cc(C(N)=O)n3)c2)C1=O` [Example 31, 2-[3-[2-[(3R)-3-hydroxy-1-methyl-2-oxo-pyrrolidin-3-yl]ethynyl]phenyl]-6-[[(3R)-tetrahydrofuran-3-yl]amino] pyrimidine-4-carboxamide], the Ki in assay [1] turned out to be 0.93 nM. Further, the IC50 in assay [2] was over 20000 nM; in assay [3] it was 479 nM.
In turn, `CN1CC[C@@](O)(C#Cc2cccc(-c3nccc(C(N)=O)n3)c2)C1=O` [Example 32, 2-[3-[2-[(3R)-3-hydroxy-1-methyl-2-oxo-pyrrolidin-3-yl]ethynyl]phenyl] pyrimidine-4-carboxamide] returned a Ki in assay [1] of 0.22 nM. Also, the IC50 in assay [2] is over 20000 nM; in assay [3], 244 nM.
For `CN1CC[C@@](O)(C#Cc2cccc(-c3nc(C(N)=O)cc(-c4ccnn4C)n3)c2)C1=O` [Example 33, 2-[3-[2-[(3R)-3-hydroxy-1-methyl-2-oxo-pyrrolidin-3-yl]ethynyl]phenyl]-6-(2-methylpyrazol-3-yl) pyrimidine-4-carboxamide] the same measures were under 0.05 nM, over 28000 nM and 36.3 nM.
`CN1CC[C@@](O)(C#Cc2cccc(-c3nc4c(c(C(N)=O)n3)CCCC4)c2)C1=O` [Example 34, 2-[3-[2-[(3R)-3-hydroxy-1-methyl-2-oxo-pyrrolidin-3-yl]ethynyl]phenyl]-5,6,7,8-tetrahydroquinazoline-4-carboxamide]: in assay [1], the Ki worked out at 1.42 nM. Moreover, the IC50 in assay [2] was over 20000 nM; in assay [3] it was 138 nM.
The corresponding values for `CN1CC[C@@](O)(C#Cc2cccc(-c3nc4c(c(C(N)=O)n3)CC(C)(C)CC4)c2)C1=O` [Example 35, 2-[3-[2-[(3R)-3-hydroxy-1-methyl-2-oxo-pyrrolidin-3-yl]ethynyl]phenyl]-6,6-dimethyl-7,8-dihydro-5H-quinazoline-4-carboxamide] are 2.23 nM, over 20000 nM and 386 nM.
For `CN1CC[C@@](O)(C#Cc2cccc(-c3nc(C(N)=O)nc4ccsc34)c2)C1=O` [Example 36, 4-[3-[2-[(3R)-3-hydroxy-1-methyl-2-oxo-pyrrolidin-3-yl]ethynyl]phenyl]thieno[3,2-d]pyrimidine-2-carboxamide] the same measures were 0.184 nM, over 20000 nM and 314 nM.
The corresponding values for `CN1CC[C@@](O)(C#Cc2cccc(-c3nc(C(N)=O)c4sccc4n3)c2)C1=O` [Example 37, 2-[3-[2-[(3R)-3-hydroxy-1-methyl-2-oxo-pyrrolidin-3-yl]ethynyl]phenyl]thieno[3,2-d]pyrimidine-4-carboxamide] are 0.12 nM, over 20000 nM and 13.9 nM.
Compound `CN1CC[C@@](O)(C#Cc2cccc(-c3nc4c(c(C(N)=O)n3)CCC4)c2)C1=O` [Example 38, 2-[3-[2-[(3R)-3-hydroxy-1-methyl-2-oxo-pyrrolidin-3-yl]ethynyl]phenyl]-6,7-dihydro-5H-cyclopenta [d]pyrimidine-4-carboxamide] gave a Ki in assay [1] of 0.19 nM. Further, the concentration for half-maximal inhibition (IC50) was over 20000 nM in assay [2] and 49.1 nM in assay [3].
